Laboratory results published in patent US9676704B2, “Pesticidal compositions and processes related thereto” (Dow AgroSciences LLC, priority 2014, dated 2017).

Legend:
[1] = system: Beet Armyworm (BAW); assay: Bioassays on BAW, 128-well diet tray assay; type: in vivo; details: Spodoptera exigua; for mortality at 50 µg/cm2: 168 h, 50 μg/cm^2 on artificial diet, second instar larvae, five to seven days, 25° C., read-out: BAW % Control (or Mortality) rating; for mortality at 0.05 µg/cm2: 0.05 μg/cm^2; for mortality at 0.05 µg/cm2 / mortality at 0.5 µg/cm2 / mortality at 5 µg/cm2: read-out: BAW Percent control (or mortality); for mortality at 0.5 µg/cm2: 0.5 μg/cm^2; for mortality at 5 µg/cm2: 5 μg/cm^2
Experimental: Bioassays on BAW were conducted using a 128-well diet tray assay. one to five second instar BAW larvae were placed in each well (3 mL) of the diet tray that had been previously filled with 1 mL of artificial diet to which 50 μg/cm^2 of the test compound (dissolved in 50 μL of 90:10 acetone-water mixture) had been applied (to each of eight wells) and then allowed to dry. Trays were covered with a clear self-adhesive cover, and held at 25° C., 14:10 light-dark for five to seven days. Percent mortality was recorded for the larvae in each well; activity in the eight wells was then averaged. The results are indicated in the tables entitled “Table ABC: Assay Results (F)”, “Table ABCD: Assay Results (C)”, and “Table ABCDE: Assay Results (P)” (See Table Section).
(§1) Bioassays on BAW and CL were conducted according to the procedures outlined in Example A: Bioassays on Beet Armyworm (“BAW”) and Cabbage Looper (“CL”) using the following concentrations: 5, 0.5, and 0.05 μg/cm^2.

[2] = system: Cabbage Looper (CL); assay: Bioassays on CL, 128-well diet tray assay; type: in vivo; details: Trichoplusia ni; for mortality at 50 µg/cm2: 168 h, 50 μg/cm^2 on artificial diet, second instar larvae, five to seven days, 25° C., read-out: CL % Control (or Mortality) rating; for mortality at 0.05 µg/cm2: 0.05 μg/cm^2; for mortality at 0.05 µg/cm2 / mortality at 0.5 µg/cm2 / mortality at 5 µg/cm2: read-out: CL Percent control (or mortality); for mortality at 0.5 µg/cm2: 0.5 μg/cm^2; for mortality at 5 µg/cm2: 5 μg/cm^2
Experimental: Bioassays on CL were conducted using a 128-well diet tray assay. One to five second instar CL larvae were placed in each well (3 mL) of the diet tray that had been previously filled with 1 mL of artificial diet to which 50 μg/cm^2 of the test compound (dissolved in 50 μL of 90:10 acetone-water mixture) had been applied (to each of eight wells) and then allowed to dry. Trays were covered with a clear self-adhesive cover, and held at 25° C., 14:10 light-dark for five to seven days. Percent mortality was recorded for the larvae in each well; activity in the eight wells was then averaged. The results are indicated in the table entitled “Table ABC: Assay Results (F)”, “Table ABCD: Assay Results (C)”, and “Table ABCDE: Assay Results (P)” (See Table Section).
as §1

Row | SMILES | mortality at 50 µg/cm2 [1] | mortality at 50 µg/cm2 [2] | mortality at 0.05 µg/cm2 [1] | mortality at 0.5 µg/cm2 [1] | mortality at 5 µg/cm2 [1] | mortality at 0.05 µg/cm2 [2] | mortality at 0.5 µg/cm2 [2] | mortality at 5 µg/cm2 [2]
1 | CNCCNC(=O)c1ccc(/C=C/C(c2cc(Cl)c(Cl)c(Cl)c2)C(F)(F)F)cc1C(F)(F)F (stereo not drawn) [Compound C115, (E)-N-(2-(methylamino)ethyl)-4-(4,4,4-trifluoro-3-(3,4,5-trichlorophenyl)but-1-en-1-yl)-2-(trifluoromethyl)benzamide] | 50 to 100% | 0% | – | – | – | – | – | –
2 | C[C@H](NC(=O)CCC(F)(F)F)NC(=O)c1ccc(/C=C/C(c2cc(Cl)c(Cl)c(Cl)c2)C(F)(F)F)cc1C(F)(F)F (stereo partly drawn) [Compound F1, 4-((E)-4,4,4-Trifluoro-3-(3,4,5-trichlorophenyl)but-1-en-1-yl)-N—((R)-1-(4,4,4-trifluorobutanamido)ethyl)-2-(trifluoromethyl)benzamide] | 50 to 100% | 50 to 100% | 100% | 100% | 100% | 97% | 100% | 100%
3 | O=C(CCC(F)(F)F)NCNC(=O)c1ccc(/C=C/C(c2cc(Cl)c(Cl)c(Cl)c2)C(F)(F)F)cc1C(F)(F)F (stereo not drawn) [Compound F13, (E)-4-(4,4,4-Trifluoro-3-(3,4,5-trichlorophenyl)but-1-en-1-yl)-N-((4,4,4-trifluorobutanamido)methyl)-2-(trifluoromethyl)benzamide] | 50 to 100% | 50 to 100% | – | – | – | – | – | –
4 | C[C@H](NC(=O)CC(F)(F)F)NC(=O)c1ccc(/C=C/C(c2cc(Cl)c(F)c(Cl)c2)C(F)(F)F)cc1C(F)(F)F (stereo partly drawn) [Compound P1, 4-((E)-3-(3,5-Dichloro-4-fluorophenyl)-4,4,4-trifluorobut-1-en-1-yl)-2-(trifluoromethyl)-N—((R)-1-(3,3,3-trifluoropropanamido)ethyl)benzamide] | 50 to 100% | 50 to 100% | – | – | – | – | – | –
5 | Cc1cc(/C=C/C(c2cc(Cl)c(Br)c(Cl)c2)C(F)(F)F)ccc1C(=O)N[C@H](C)NC(=O)CC(F)(F)F (stereo partly drawn) [Compound P8, 4-((E)-3-(4-Bromo-3,5-dichlorophenyl)-4,4,4-trifluorobut-1-en-1-yl)-2-methyl-N—((R)-1-(3,3,3-trifluoropropanamido)ethyl)benzamide] | 50 to 100% | 50 to 100% | – | – | – | – | – | –
6 | C[C@H](NC(=O)CCC(F)(F)F)NC(=O)c1ccc(/C=C/C(c2cc(Cl)c(F)c(Cl)c2)C(F)(F)F)cc1C(F)(F)F (stereo partly drawn) [Compound P9, 4-((E)-3-(3,5-Dichloro-4-fluorophenyl)-4,4,4-trifluorobut-1-en-1-yl)-N—((R)-1-(4,4,4-trifluorobutanamido)ethyl)-2-(trifluoromethyl)benzamide] | 50 to 100% | 50 to 100% | – | – | – | – | – | –
7 | Cc1cc(/C=C/C(c2cc(Br)cc(Br)c2)C(F)(F)F)ccc1C(=O)N[C@H](C)NC(=O)CCC(F)(F)F (stereo partly drawn) [Compound P15, 4-((E)-3-(3,5-Dibromophenyl)-4,4,4-trifluorobut-1-en-1-yl)-2-methyl-N—((R)-1-(4,4,4-trifluorobutanamido)ethyl)benzamide] | 50 to 100% | 50 to 100% | – | – | – | – | – | –
8 | Cc1cc(/C=C/C(c2cc(Cl)c(Br)c(Cl)c2)C(F)(F)F)ccc1C(=O)N[C@H](C)NC(=O)CCC(F)(F)F (stereo partly drawn) [Compound P16, 4-((E)-3-(4-Bromo-3,5-dichlorophenyl)-4,4,4-trifluorobut-1-en-1-yl)-2-methyl-N—((R)-1-(4,4,4-trifluorobutanamido)ethyl)benzamide] | 50 to 100% | 50 to 100% | – | – | – | – | – | –
9 | Cc1cc(/C=C/C(c2cc(Cl)c(Cl)c(Cl)c2)C(F)(F)F)ccc1C(=O)N[C@H](C)NC(=O)CC(F)(F)F (stereo partly drawn) [Compound P22, 2-Methyl-4-((E)-4,4,4-trifluoro-3-(3,4,5-trichlorophenyl)but-1-en-1-yl)-N—((R)-1-(3,3,3-trifluoropropanamido)ethyl)benzamide] | 50 to 100% | 50 to 100% | 25% | 100% | 100% | 63% | 100% | 100%
10 | Cc1cc(/C=C/C(c2cc(Cl)c(Cl)c(Cl)c2)C(F)(F)F)ccc1C(=O)N[C@H](C)NC(=O)CCC(F)(F)F (stereo partly drawn) [Compound P25, 2-Methyl-4-((E)-4,4,4-trifluoro-3-(3,4,5-trichlorophenyl)but-1-en-1-yl)-N—((R)-1-(4,4,4-trifluorobutanamido)ethyl)benzamide] | 50 to 100% | 50 to 100% | 100% | 100% | 100% | 100% | 100% | 100%
11 | CC(CC(F)(F)F)C(=O)N[C@@H](C)NC(=O)c1ccc(/C=C/C(c2cc(Cl)c(Cl)c(Cl)c2)C(F)(F)F)cc1C(F)(F)F (stereo partly drawn) [Compound P30, N—((R)-1-(4,4,4-Trifluoro-2-methylbutanamido)ethyl)-4-((E)-4,4,4-trifluoro-3-(3,4,5-trichlorophenyl)but-1-en-1-yl)-2-(trifluoromethyl)benzamide] | 50 to 100% | 50 to 100% | – | – | – | – | – | –
12 | C[C@H](NC(=O)CS(C)(=O)=O)NC(=O)c1ccc(/C=C/C(c2cc(Cl)c(Cl)c(Cl)c2)C(F)(F)F)cc1C(F)(F)F (stereo partly drawn) [Compound P43, N—((S)-1-(2-(Methylsulfonyl)acetamido)ethyl)-4-((E)-4,4,4-trifluoro-3-(3,4,5-trichlorophenyl)but-1-en-1-yl)-2-(trifluoromethyl)benzamide] | 50 to 100% | 50 to 100% | – | – | – | – | – | –
13 | C[C@H](NC(=O)CCS(C)(=O)=O)NC(=O)c1ccc(/C=C/C(c2cc(Cl)c(Cl)c(Cl)c2)C(F)(F)F)cc1C(F)(F)F (stereo partly drawn) [Compound P47, N—((R)-1-(3-(methylsulfonyl)propanamido)ethyl)-4-((E)-4,4,4-trifluoro-3-(3,4,5-trichlorophenyl)but-1-en-1-yl)-2-(trifluoromethyl)benzamide] | 50 to 100% | 50 to 100% | – | – | – | – | – | –
14 | CSCCC(=O)N[C@@H](C)NC(=O)c1ccc(/C=C/C(c2cc(Cl)c(Cl)c(Cl)c2)C(F)(F)F)cc1C(F)(F)F (stereo partly drawn) [Compound P53, N—((R)-1-(3-(Methylthio)propanamido)ethyl)-4-((E)-4,4,4-trifluoro-3-(3,4,5-trichlorophenyl)but-1-en-1-yl)-2-(trifluoromethyl)benzamide] | 50 to 100% | 50 to 100% | – | – | – | – | – | –
15 | CSCC(=O)N[C@@H](C)NC(=O)c1ccc(/C=C/C(c2cc(Cl)c(Cl)c(Cl)c2)C(F)(F)F)cc1C(F)(F)F (stereo partly drawn) [Compound P54, N—((S)-1-(2-(Methylthio)acetamido)ethyl)-4-((E)-4,4,4-trifluoro-3-(3,4,5-trichlorophenyl)but-1-en-1-yl)-2-(trifluoromethyl)benzamide] | 50 to 100% | 50 to 100% | – | – | – | – | – | –
16 | C[C@H](NC(=O)CCC(F)(F)F)NC(=O)c1ccc(/C=C/C(c2cc(Cl)c(Cl)c(Cl)c2)C(F)(F)F)cc1 (stereo partly drawn) [FC1, 4-((E)-4,4,4-Trifluoro-3-(3,4,5-trichlorophenyl)but-1-en-1-yl)-N—((R)-1-(4,4,4-trifluorobutanamido)ethyl)benzamide] | – | – | 0% | 0% | 13% | 0% | 0% | 71%
17 | C[C@H](NC(=O)CC(F)(F)F)NC(=O)c1ccc(/C=C/C(c2cc(Cl)c(Cl)c(Cl)c2)C(F)(F)F)cc1 (stereo partly drawn) [FC2, 4-((E)-4,4,4-Trifluoro-3-(3,4,5-trichlorophenyl)but-1-en-1-yl)-N—((R)-1-(3,3,3-trifluoropropanamido)ethyl)benzamide] | – | – | 0% | 0% | 0% | 0% | 0% | 0%
